Among the test systems are 786-0; A498; DU-145; HT-29; Hs-578T; IGROV-1; KM12; OVCAR-3; OVCAR-5; RPMI-8226; SF-539; SK-MEL-2; SK-MEL-5; SN12C; T47D; TK-10; U-251; UACC-257; UACC-62; UO-31.
Common to all, as to test: DTP human tumour cell line panel, 48 h

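Five compound concentrations were applied to cells in 96-well plates for 48 hours; endpoints were derived by simple linear interpolation of the resulting dose-response curve. At the GI50, growth is halved.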 The source made the active and inactive calls. Rule as the data show it: active = GI50 up to about 1.1 µM and inactive = higher.

For orientation: GI50 means the concentration that inhibits growth by half. For `c1ccc2c(-c3ccnc(-c4c[nH]c5ccccc45)n3)c[nH]c2c1`, the GI50 in the experiment on 786-0 is 2.12 µM (inactive); in the experiment on A498, 2.23 µM (inactive); in the experiment on DU-145, 12.4 µM (inactive); in the experiment on HT-29 it was 2.7 µM (inactive); in the experiment on Hs-578T, 2.81 µM (inactive); in the experiment on IGROV-1, < 0.01 µM (active). The GI50 in the experiment with KM12 was 3.94 µM (inactive); in the experiment on OVCAR-3 it was 6.4 µM (inactive); in the experiment with OVCAR-5 it was > 100 µM (inactive); with RPMI-8226 it was 1.91 µM (inactive); in the experiment with SF-539, 4.37 µM (inactive); in the experiment on SK-MEL-2, 4.16 µM (inactive). Moreover, the GI50 in the experiment on SK-MEL-5 is 3.27 µM (inactive); in the experiment with SN12C it was 2.78 µM (inactive); with T47D, 3.85 µM (inactive); in the experiment with TK-10 it was 8.67 µM (inactive); in the experiment with U-251 it was 3.86 µM (inactive); with UACC-257 it was 4.34 µM (inactive). Further, the GI50 with UACC-62 was 1.95 µM (inactive); in the experiment with UO-31, 3.98 µM (inactive).
Consider `O=C(O)C1C2CC3C(OC(=O)C31)C2Br` (stereo not given), for which the GI50 in the experiment on 786-0, with A498, in the experiment with DU-145, in the experiment on HT-29, in the experiment with Hs-578T and in the experiment on IGROV-1 was > 100 µM (inactive) each time. Further, the GI50 in the experiment with KM12, with OVCAR-3, in the experiment on OVCAR-5, with RPMI-8226, with SF-539 and in the experiment with SK-MEL-2 was > 100 µM (inactive) in each case. In addition, the GI50 in the experiment with SK-MEL-5, in the experiment on SN12C, in the experiment with T47D, in the experiment on TK-10, in the experiment with U-251 and with UACC-257 was > 100 µM (inactive) in each case. Moreover, the GI50 in the experiment with UACC-62 and in the experiment on UO-31 was > 100 µM (inactive) each time.
Take `COc1ccc(-c2cc(-c3ccc(Nc4ccnc5cc(C(F)(F)F)ccc45)cc3)[nH]c(=O)c2C#N)c2ccccc12`: the GI50 was 21 µM (inactive) with 786-0; > 43 µM (inactive) in the experiment with A498; > 43.8 µM (inactive) with DU-145; > 25.7 µM (inactive) in the experiment on HT-29; 35.7 µM (inactive) with Hs-578T; > 100 µM (inactive) in the experiment on IGROV-1. The GI50 in the experiment with KM12 was > 30.4 µM (inactive); in the experiment on OVCAR-3 it was 38.7 µM (inactive); in the experiment with OVCAR-5, > 61.2 µM (inactive); with RPMI-8226 it was > 100 µM (inactive); in the experiment on SF-539, 16.6 µM (inactive); in the experiment on SK-MEL-2 it was > 56 µM (inactive). Also, the GI50 with SK-MEL-5 was > 100 µM (inactive); in the experiment on SN12C, > 100 µM (inactive); with T47D, > 34 µM (inactive); in the experiment on TK-10, 26.9 µM (inactive); in the experiment on U-251 it was 10.2 µM (inactive); in the experiment on UACC-257 it was > 100 µM (inactive). Also, the figures for the GI50 with UACC-62 and in the experiment on UO-31 were 88.5 µM (inactive) and > 35.6 µM (inactive), respectively.

The values above are taken from ChEMBL document CHEMBL1201862, “PubChem BioAssay data set” (2004).
